Experimental data taken from PubChem BioAssay AID588764 (Broad Institute, 2011).
Records with an inconclusive call do not appear. Activity calls are given as the source filed them. The rule behind the calls is not given here.

Target: Histone acetyltransferase RTT109 (Candida albicans (strain SC5314 / ATCC MYA-2876)) (UniProt Q5AAJ8)
Assay: C. albicans Rtt109 HAT inhibition curves – biochemical, cherry-picked hits, plate reader, dose response (AID 588764);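 for activity change, negative = inhibition: 0% = neutral control wells and -100% = no enzyme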
Settings: Rtt109/Vps75 HAT activity; for activity change, negative = inhibition: at 19.5 µM (top of the series)

Sequence of Histone acetyltransferase RTT109 (Candida albicans (strain SC5314 / ATCC MYA-2876)) (Q5AAJ8 whole entry, looked up): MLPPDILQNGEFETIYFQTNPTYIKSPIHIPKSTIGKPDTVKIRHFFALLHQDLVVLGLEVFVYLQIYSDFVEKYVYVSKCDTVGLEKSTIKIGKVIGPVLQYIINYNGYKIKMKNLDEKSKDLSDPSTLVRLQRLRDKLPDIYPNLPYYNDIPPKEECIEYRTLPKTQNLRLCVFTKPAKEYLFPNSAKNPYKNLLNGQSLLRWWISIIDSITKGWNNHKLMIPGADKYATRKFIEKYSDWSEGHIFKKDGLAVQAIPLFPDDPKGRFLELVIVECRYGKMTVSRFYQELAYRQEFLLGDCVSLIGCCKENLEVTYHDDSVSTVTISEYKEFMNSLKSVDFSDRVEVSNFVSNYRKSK

Structure (SMILES) | activity change, negative = inhibition | AC50 [µM]
CCOC(=O)C1CCN(S(=O)(=O)c2ccc3c(c2)CC(C)N3C(=O)C2CCC2)CC1 (configuration not stated) | inactive | –
C[C@]12CC[C@@H]3c4ccc(O)c(O)c4CC[C@H]3[C@@H]1CC[C@@H]2O | – | 10
N#CC1=C(S)N(c2ccccc2)C(c2cccs2)NC1=O (configuration not stated) | – | 11.3
CCOc1ccc(S(=O)(=O)NCCC(=O)Nc2cccc(C(=O)OC)c2)cc1 | inactive | –
CCOC(=O)C1CCCN(c2cc(=O)n(C3CCCCC3)c(=O)[nH]2)C1 (configuration not stated) | inactive | –
Cc1ccc(/C=C2\SC(=S)N(C(Cc3ccccc3)C(=O)O)C2=O)cc1 (configuration not stated) | inactive | –
Cc1nc2ccccc2n1CC(=O)NC1CCCC1 | inactive | –
CC(=O)Nc1ccc(OCc2cccc([N+](=O)[O-])c2)cc1 | inactive | –
Oc1cc2c(cc1O)[C@H]1c3ccc(O)c(O)c3OC[C@@]1(O)C2 | – | 7.81
O=C(Nc1ccc(Oc2cccnc2)cc1)C1CCN(Cc2cc(Cl)ccc2O)CC1 | inactive | –
Cc1ccc(S(=O)(=O)Nc2ccc(O)c3cccnc23)cc1 | inactive | –
O=c1c2ccccc2sn1-c1cc(S(=O)(=O)N2CCOCC2)ccc1N1CCOCC1 | – | 3.78
COc1ccc(/C=C2/SC(=O)N(NS(=O)(=O)c3ccccc3)C2=S)cc1OC | inactive | –
CC1CCCC(NS(=O)(=O)c2cccc3nsnc23)C1C (configuration not stated) | inactive | –
O=C1OC(NC(=O)c2ccccc2)C(n2cc(CO)nn2)=C1Cl (configuration not stated) | – | 5.2
COCCNC(=O)C(c1ccc(O)cc1)N(Cc1ccccc1)C(=O)CCC(=O)Nc1ccccn1 (configuration not stated) | inactive | –
CCOc1cc(/C=N/NC(=O)CSc2nncn2C)ccc1OCc1cccc(C)c1 | inactive | –
O=C(CN1CCCc2ccccc21)NCc1ccc2c(c1)OCO2 | inactive | –
COc1ccccc1C(=O)NCC(=O)N=Nc1c(O)n(C(C)C)c2ccccc12 | inactive | –
CCOC(=O)C(C)N1C(=O)S/C(=C/c2ccc3c(c2)n(C)c(=O)n3C)C1=O (configuration not stated) | inactive | –
Cc1cccc(-n2c(SCC(N)=O)nc3c(c2=O)C2(CCCCC2)Cc2ccccc2-3)c1 | inactive | –
Cc1cccc(N2C(S)=C(C#N)C(=O)NC2c2cccs2)c1 (configuration not stated) | – | 11.7
CSS(=O)(=O)c1cccc2cccnc12 | – | 7.95

Structure (SMILES) | activity change, negative = inhibition | AC50 [µM]
O=C(Nc1ccc(O)c(-c2nc3ccccc3s2)c1)c1cc(=O)c2ccccc2o1 | inactive | –
CCOc1ccc(N2C(=O)C(Cl)=C(N3CCOCC3)C2=O)cc1 | – | 20.3
CCOC(=O)c1c(C)n(-c2ccc(C)cc2)c2ccc(OCC(O)CNCCCO)cc12 (configuration not stated) | inactive | –
O=C(Cc1ccc(F)cc1)Nc1cccc2cccnc12 | inactive | –
COC(=O)c1cccc(-n2sc3ccccc3c2=O)c1 | – | 4.38
Cc1nn(CC(=O)NCc2cccnc2)c(C)c1[N+](=O)[O-] | inactive | –
O=C(CCn1c(=O)c2ccccc2n(Cc2cccc([N+](=O)[O-])c2)c1=O)N1CCc2ccccc2C1 | inactive | –
CC1(C)OC(=O)N(c2ccccc2)C12C=Cc1cc(Br)ccc1O2 (configuration not stated) | inactive | –
Cc1ccc(C(=O)NCCNC(=O)COc2ccccc2Cl)cn1 | inactive | –
COc1ccc(Br)cc1CN(C)C(C)C(=O)Nc1cccc(C(C)=O)c1 (configuration not stated) | inactive | –
NC(N)=N/N=C/c1ccc(OCc2ccccc2)c(OCc2ccccc2)c1 | inactive | –
Cc1cccn2cc(CCNS(=O)(=O)c3cccs3)nc12 | inactive | –
Cc1cc(C)c2sc(C)[n+](CCCS(=O)(=O)[O-])c2c1 | inactive | –
O=C(CCc1nnc(C2(c3ccc(Cl)cc3)CCC2)o1)NCCCn1cccn1 | inactive | –
COc1ccc(-c2nc(-c3cccs3)no2)cc1 | inactive | –
COc1cccc(-c2nn(C)c3sc(C(=O)N4CCN(c5ccccn5)CC4)cc23)c1 | inactive | –
CCCCc1ccc(-n2c(Cc3cccs3)n[nH]c2=S)cc1 | inactive | –
COc1cccc(/C=C2\SC(=S)N(C(C)C(=O)NC3C=CS(=O)(=O)C3)C2=O)c1 (configuration not stated) | inactive | –
Cc1cccc2sc(N(CCCN(C)C)C(=O)CCc3ccccc3)nc12 | inactive | –
N#CC1=C(S)N(c2ccccc2)C(c2ccc(-c3cccc(Cl)c3)o2)NC1=O (configuration not stated) | – | 11.9
Cn1c(SCC(=O)NC2CCCCC2)nnc1-c1cccnc1 | inactive | –
O=C(CSC1=NC2(CCCCC2)N=C1c1ccccc1)Nc1ccc2c(c1)OCCO2 | inactive | –
O=C(C[n+]1cc(-c2ccc(Cl)c(Cl)c2)n2c1CCC2)N1c2ccccc2Sc2ccccc21 | inactive | –

Structure (SMILES) | activity change, negative = inhibition | AC50 [µM]
C1CCC(C(CC2CCCCN2)C2CCCCC2)CC1 (configuration not stated) | inactive | –
CC(=O)Nc1nc(-c2ccccc2)c(-c2ccccc2)o1 | inactive | –
O=C(CNC(=O)c1ccc(Br)o1)NC12CC3CC(CC(C3)C1)C2 | inactive | –
CC(C(=O)Nc1ccc(O)c(C(=O)O)c1)N1C(=O)/C(=C/c2cccs2)SC1=S (configuration not stated) | inactive | –
C#CCOCCOCCOCCNc1nc(N2CCN(C(=O)[C@H](CCCN=C(N)N)n3cc(C(N)[C@@H](C)CC)nn3)CC2)nc(N2CCN(C(=O)[C@H](CCCCN)n3cc([C@@H](N)[C@H](C)CC)nn3)CC2)n1 (some centres not stated) | inactive | –
Oc1c(Cl)cc(Cl)c(Cl)c1Cc1c(O)c(Cl)cc(Cl)c1Cl | – | 5.48
CCN(CC)S(=O)(=O)c1ccc(C(=O)Nc2cc(S(=O)(=O)N3CCOCC3)ccc2N2CCN(C)CC2)cc1 | inactive | –
COc1ccccc1C(=O)Nc1ccc(OCC(=O)N2CC(C)CC(C)C2)cc1 (configuration not stated) | inactive | –
O=C(Nc1ccc(F)cc1F)N1CCCC(c2nc(-c3ccc(F)cc3)no2)C1 (configuration not stated) | inactive | –
CN(C)c1ccc(/C=C/c2cc[n+](C)c3ccccc23)cc1 | inactive | –
Cc1nn(S(=O)(=O)c2ccc(C(C)C)cc2)c(C)c1S(=O)(=O)N1CCOCC1 | inactive | –
CCN1/C(=C/c2ccc3cc(C)cc(C)c3[n+]2CC)Sc2cc(C)ccc21 | inactive | –
CCCCCCCCCCCCCCCC[N+](C)(C)CCN(Cc1ccc(OC)cc1)c1ncccn1 | – | 16.1
CC(=O)Nc1ccc(OCC(=O)NCc2ccccc2)cc1 | inactive | –
CN(c1ccc(C(=O)Nc2ccc3c(c2)OCO3)cc1)S(C)(=O)=O | inactive | –
O=S(=O)(NN1CCOCC1)c1ccc(Br)cc1 | – | 11.6
Cc1ccc(C(=O)NCC(=O)NCC(c2ccco2)N2CCCCC2)cc1C (configuration not stated) | inactive | –
Cc1ccc2nc(-c3ccc(NC(=S)NC4CC(C)(C)NC(C)(C)C4)cc3)sc2c1 | inactive | –
COc1ccc(S(=O)(=O)N(C)C)cc1NC(=O)Cc1ccc(S(=O)(=O)N2CCOCC2)s1 | inactive | –
CN1CCN(S(=O)(=O)c2cccc(C(=O)N(Cc3ccccc3)c3ccccc3)c2)CC1 | inactive | –
Cc1ccc(C(=O)NCCCNC(=O)COc2ccc(C)c(C)c2)cn1 | inactive | –
O=C(CNC(=O)c1ccncc1)N/N=C/c1cccc([N+](=O)[O-])c1 | inactive | –
Cc1ccc2c(c1)C1C[N+](C)(CC(=O)c3ccc(Cl)cc3Cl)CCC1N2C(=O)c1ccc(F)cc1 (configuration not stated) | – | 13.4

Structure (SMILES) | activity change, negative = inhibition | AC50 [µM]
Cc1ccccc1-n1sc2cc(F)ccc2c1=O | – | 5.9
Cc1ccc(C#N)c(SCc2nnc(-c3ccc(Cl)cc3)o2)n1 | inactive | –
CCCCCCCCCCCCn1ccc(=N)cc1 | inactive | –
CN(C(=O)c1ccc(N2CCCCC2)c([N+](=O)[O-])c1)C1(C)CCS(=O)(=O)C1 (configuration not stated) | inactive | –
Cc1c(C(=O)N2CCC[C@H]2CO)oc2c(F)cccc12 | inactive | –
Oc1cc2c(cc1O)C1c3ccc(O)c(O)c3OCC1(O)C2 (configuration not stated) | – | 6.08
CC1Cc2ccccc2N1C(=O)COC(=O)c1ccc(O)cc1 (configuration not stated) | inactive | –
O=C(c1nnsc1S(=O)c1ccc(Cl)cc1)N1CCOCC1 (configuration not stated) | – | 6.04
CC1CCN(c2ccccc2NC(=O)c2cc([N+](=O)[O-])ccc2N2CCOCC2)CC1 | inactive | –
CC(C)c1nnc(NC(=O)CCC(=O)NCc2cccs2)s1 | inactive | –
CCn1c(SCC(=O)Nc2ccc(Br)cc2)nc2sc3c(c2c1=O)CCN(C)C3 | inactive | –
Fc1ccc(C2CC(c3ccco3)=Nc3ccccc3S2)cc1 (configuration not stated) | inactive | –
CCOC(=O)c1c(CSC(=N)N)n(C)c2cc(Br)c(OC(C)=O)cc12 | inactive | –
O=C1/C(=C/c2ccc(F)cc2)SC(=S)N1CC(=O)N1CCCCC1c1cccnc1 (configuration not stated) | inactive | –
COc1ccc(CN(C)C(=O)c2cc(S(=O)(=O)N3CCCCCC3)ccc2OC)cc1OC | inactive | –
C=CCOc1ccc(/C(O)=C2\C(=O)C(=O)N(CCOC)C2c2cccnc2)cc1 (configuration not stated) | inactive | –
CS(=O)(=O)C1=NN2C(=N)/C(=C\c3ccc(OC(=O)c4ccco4)cc3)C(=O)N=C2S1 | inactive | –
COc1cccc(OC)c1C(=O)Nc1cccc(-c2ccc(N3CCOCC3)nn2)c1 | inactive | –
COc1ccc(NC(=O)c2nc3ccccc3s2)cc1 | inactive | –
COc1ccc(C(=O)C(CCC(CNC(C)(C)C)C(=O)c2ccc(OC)cc2)CNC(C)(C)C)cc1 (configuration not stated) | inactive | –
CCN1/C(=C/c2ccc3cc(C)ccc3[n+]2CC)Sc2cc(C)ccc21 | inactive | –
CC(=O)/C(=N/Nc1ccccc1)Sc1nnc(C(O)c2ccccc2)n1-c1ccccc1 (configuration not stated) | inactive | –
Nc1nc2ccc(S(=O)(=O)N3CCCCC3)cc2s1 | – | 19.5
